Test results: patent publication US20120135917A1, “Anti-Gram Negative Bacteria Agent” (priority 2009, published 2012)
Read-outs that look alike come from different tables or passages of the source.

Legend:
[1] = system: Pseudomonas aeruginosa (strain PAO1); test: Viable cell count of Pseudomonas aeruginosa strain PAO1 cultured with peptide and polymyxin B; type: cell-based; details: 0.4 μg/mL polymyxin B
Description: At this time, the culture was performed under conditions in which various concentrations of a peptide, LTLR (a peptide consisting of 4 amino acid residues, having the sequence leucine-threonine-leucine-arginine) were added. Under each condition, the number of viable cells of Pseudomonas aeruginosa was measured, and it was measured how the addition of the peptide changes the number of the viable cells compared to the number of the viable cells for no addition of the peptide. The results are shown in the graph of FIG. 4(A).

[2] = system: Clinical isolates (strains 24, 42, 83, 88 and 92 of P. aeruginosa), strain nalB, strain nfxC; details: 3 mM LTLR, polymyxin B 0.2 μg/mL
Description: In Examples and the like described below, the number of viable cells of Gram-negative bacteria (Pseudomonas aeruginosa or Escherichia coli) is measured as follows. A portion of bacteria cultured at 37° C. overnight is added to a fresh MH medium and continues to be cultured at the same temperature. When the turbidity (absorbance at 600 nm) of the bacteria reaches 0.7-0.8, the bacterial solution is added an MH medium to prepare a bacterial solution diluted 1:100-200, which is used for experimental purposes. A solution in which 60-80 μL of the bacterial solution was added to a solution of a peptide and the like to a final amount of 100 μL is cultured for a certain time (3 hours) while stirring at 37° C. After culture, the bacterial solution was diluted with a PBS solution, and the diluted solution is seeded on an MH agar plate and cultured at 37° C. overnight. The following day, the number of colonies grown on the plate is counted to determine the number of viable bacterial cells.
Clinical isolates (strains 24, 42, 83, 88 and 92 of P. aeruginosa), strain nalB (a strain having acquired high multidrug resistance by highly expressing MexAB-OprM as a drug efflux pump), and strain nfxC (a strain having acquired high multidrug resistance by highly expressing MexEF-OprN as a drug efflux pump) were used in place of the strain PA01 (standard strain) of Pseudomonas aeruginosa used in Example 1 to measure the action of LTLR thereon. In this experiment, the final concentration of polymyxin B was set at 0.2 μg/mL with 3 mM LTLR added to examine changes in the survival rate thereof.

[3] = system: Escherichia coli; test: Viable cell count of Escherichia coli with peptide and polymyxin B; type: cell-based; details: ATCC25922; 3 mM LTLR; polymyxin B 0.2 μg/mL
Description: Escherichia coli (ATCC25922) was used in place of Pseudomonas aeruginosa for the same measurement as in Example 2.
LTLR whose carboxy terminal was amidated was synthesized to examine the action thereof. Under the same conditions as those in Example 1, various concentrations of the amidated LTLR were added to examine changes in the survival rate of Pseudomonas aeruginosa.

Substance: leucine-threonine-leucine-arginine [LTLR]
- survival rate of Pseudomonas aeruginosa ([1]; 2.5 mM peptide, 3 hours culture, vs no addition of peptide): ~0%
- change in survival rate of Pseudomonas aeruginosa ([1]; various concentrations of peptide): decreased in a manner dependent on the concentration
- Survival Rate (%) ([2]; P. aeruginosa 24): 0%
- Survival Rate (%) ([2]; P. aeruginosa 42): 43%
- Survival Rate (%) ([2]; P. aeruginosa 83): 0%
- Survival Rate (%) ([2]; P. aeruginosa 88): 25%
- Survival Rate (%) ([2]; P. aeruginosa 92): 9%
- Survival Rate (%) ([2]; strain nalB (highly expressing MexAB-OprM)): 0%
- Survival Rate (%) ([2]; strain nfxC (highly expressing MexEF-OprN)): 1%
- survival rate of Escherichia coli [3]: about 1%
